Test results reported in paper PMC9535023, “Inhibition of phospholipase D1 induces immunogenic cell death and potentiates cancer immunotherapy in colorectal cancer” (Experimental & Molecular Medicine, 2022).

How the values were obtained:
Format in all cases: cell-based
DLD1 cells = test: Apoptosis assay (annexin V flow cytometry), DLD1
Method: For cell cycle analysis, the cells were treated with Α3373 or 5-FU. The cells were labeled with 10 μΜ bromodeoxyuridine (BrdU) for 2 h. Subsequently, the cells were stained with 7-aminoactinomycin D (7-AAD, Invitrogen) and a fluorescein isothiocyanate (FITC)-conjugated anti-BrdU antibody (Invitrogen). Apoptotic cells were detected using an Annexin V-FITC Apoptosis Detection Kit (BD Biosciences). The cells were analyzed using BD FACSAria III (BD Biosciences), and data analysis was performed using FlowJo v10.0 (BD Biosciences).

CRC cells [1] = test: Measurement of extracellular ATP
Method: (§1) For the quantitative determination of extracellular ATP, the cells were treated with Α3373. Extracellular release of ATP was assessed using the ENLITEN ATP Assay kit (Promega) according to the manufacturer’s instructions. For the HMGB1 level measurement, the supernatants of the cells were prepared by removing insoluble materials by centrifugation at 10,000 × g for 3 min at 4 °C. The levels of HMGB1 were measured using an HMGB1 detection kit (Chondrex) according to the manufacturer’s instructions.

CRC cells [2] = test: Measurement of HMGB1 release (ELISA)
Method: as §1

O=C(Nc1cc(C(F)(F)F)cc(C(F)(F)F)c1)c1cc2cc(F)ccc2[nH]1 [Compound A3373]
apoptosis of CRC cells, in words (DLD1 cells): significantly promoted the apoptosis of CRC cells alone
extracellular ATP, in words (CRC cells [1]): significantly increased extracellular ATP
release of HMGB1, in words (CRC cells [2]): increased the release of HMGB1 in a dose-dependent manner
